According to publication PMC10216341 (Brain Sciences, 2023):
Like-named read-outs stand apart in the source and are kept apart here.

Experiments:
SH-SY5Y cells [1] = assay: MTT cell viability assay; format: cell-based, human; conditions: read-out: MTT IC50
Experimental: (§1) SH-SY5Y cells were differentiated as described by Encinas et al. (2000) after seeding onto either poly-D-Lysine hydrobromide (PDL) (50 µg/mL) (P6407, Sigma-Aldrich, Poole, UK) -coated cell cultureware or in 96-well microtitre plates (6005649, Perkin Elmer, Groningen, The Netherlands) with 10% FBS media and after settling, cells were grown to 60% confluency.
In brief, 3 × 10^4 cells/well were grown in laminin-coated 96-well clear-bottom tissue culture plates. Undifferentiated cells were challenged with each agent for 24 h within the concentration ranges specified by diluting each compound in the cell culture medium. Differentiated cells that were grown on 96-well plates were treated with each compound diluted in cell culture medium. After incubation with the compounds, spent media was removed and then replaced with the corresponding media for differentiated or undifferentiated cells containing 10% of 5 mg/mL MTT and incubated for 4 h. Wells that only received 10% MTT and respective growth media served as background controls. The formazan crystals generated were suspended in 1:1 DMSO and isopropanol solution and the absorbance of wells read at 570 nm using a spectrophotometer (Multiskan Spectrum, Thermo Electron Corporation, Vantaa, Finland). Experiments were performed in triplicates from which an average was taken, and blank (negative control) values were subtracted. Cell viability was expressed as a percentage of survival […] from at least five repeated experiments. The concentration of agent producing a 50% inhibition of cell viability (IC50 values) was obtained from the concentration-response curves and expressed as means ± standard error of the mean (SEM).

SH-SY5Y cells [2] = assay: Lactate dehydrogenase (LDH) assay, extracellular LDH; format: cell-based, human
Experimental: as §1
The production of active extracellular LDH in response to pesticide exposures was measured using an LDH assay kit (ab65393, Abcam, Cambridge, UK) according to the manufacturer’s instructions. After agent treatment (1–200 µM, or vehicle control), 50 µL of spent media was removed and LDH activity was measured spectrophotometrically at 450 nm (Multiskan Spectrum, Thermo Electron Corporation, Finland). Assays were performed in triplicates, with blank values from a negative control subtracted from test values. IC50 values were obtained from the concentration-response curves and expressed as means ± standard error of the mean (SEM). Experiments were performed with an n-number of at least five.

SH-SY5Y cells [3] = assay: Intracellular ATP levels, luminescence assay; format: cell-based, human
Experimental: as §1
Undifferentiated and differentiated cells that were grown in 6-well plates were treated with MTT cell viability inhibition concentrations that produced 10, 20, 50, and an 80% loss of cell viability. Intracellular ATP levels were quantified using an ATP luminescence assay kit (ATP Bioluminescence Assay Kit CLS II (product 11 699 695 001, Roche, Germany), according to the manufacturer’s protocol. ATP standards were prepared according to the kit protocol across a concentration range of 1 × 10^−4 to 1 × 10^−10 M and after the addition of luciferase reagent to each well, the luminescence was measured using a luminometric plate reader (Thermo Fisher Scientific, Fluoroskan Ascent FC, Vantaa, Finland) using an integration time of 1 s. The ATP content in control and pesticide-treated samples were interpolated from the ATP standard curve. Experiments were performed in triplicates and five individual experiments were undertaken from which a mean was calculated, with blank values subtracted.

[4] = tested on: differentiated SH-SY5Y cells; assay: Neurite extension (neurite length) in differentiated cells, microscopy; format: cell-based, human; conditions: 24 h, read-out: Neurite Retraction IC50
Experimental: SH-SY5Y cells were seeded at 5 × 10^5 cells/well in 12-well poly-D-Lysine coated plates and grown for 24 h to ensure cell adhesion. Cells were then treated with pesticides in differentiation media for 24 h. Cell images were captured using a phase contrast microscope (Olympus, DP70, London, UK). Cells were considered differentiated if each neuronal cell contained at least one process that was longer than its cell body. The neurite length from 100 randomly chosen cells were measured in five selected regions of each well using the neurite tracer tool in Image J (Image J 1.49k, National Institute of Health, Bethesda, MD, USA). Results are expressed as mean percentage neurite length (±SEM) relative to vehicle-control treated cells.

[5] = target: T1, acetylcholinesterase (AChE) (Homo sapiens, UniProt P22303); assay: cell-based; conditions: 24 h
T1 construct: endogenous in cells; host or cells: SH-SY5Y human neuroblastoma cells (ECACC-94030304), undifferentiated and differentiated
Experimental: Inhibition of AChE was assessed using an Ellman’s assay modified for harvested cells [32, 33]. […] The supernatant was discarded, and the resultant cell pellet was retained and resuspended in 1 mL of potassium phosphate buffer pH 8.0. A volume of 100 µL was then assayed as a 1:1 mixture with ATCI and DTNB. […] Since the absorbance background increased with time, the associated absorbance of buffer blanks was subtracted at each time point for each data point. Corrected absorbance readings for each treatment were normalized to the means of the vehicle control and AChE activity presented as a percentage relative to the vehicle control.

rat = conditions: cited from earlier work
[6] = WHO class; cited from earlier work
[7] = Homo sapiens, differentiated SH-SY5Y cells

T1 sequence (P22303 32-614): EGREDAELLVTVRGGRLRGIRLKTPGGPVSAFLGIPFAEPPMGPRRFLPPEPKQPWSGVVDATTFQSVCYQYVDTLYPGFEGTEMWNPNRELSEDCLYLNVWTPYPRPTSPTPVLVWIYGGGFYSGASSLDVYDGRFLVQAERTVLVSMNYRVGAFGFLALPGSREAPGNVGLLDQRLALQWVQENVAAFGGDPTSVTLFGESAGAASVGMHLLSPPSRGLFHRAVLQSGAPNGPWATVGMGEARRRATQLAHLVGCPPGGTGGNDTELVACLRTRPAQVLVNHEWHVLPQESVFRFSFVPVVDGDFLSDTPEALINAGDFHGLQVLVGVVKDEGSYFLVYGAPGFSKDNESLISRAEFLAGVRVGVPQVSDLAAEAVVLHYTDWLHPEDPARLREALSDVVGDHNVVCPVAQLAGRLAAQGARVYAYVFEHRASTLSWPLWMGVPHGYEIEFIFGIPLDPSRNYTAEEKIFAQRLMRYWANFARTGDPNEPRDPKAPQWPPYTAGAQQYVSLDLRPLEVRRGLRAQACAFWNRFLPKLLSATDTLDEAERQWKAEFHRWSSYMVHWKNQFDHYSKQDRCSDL

## COP(=O)(OC)SCn1c(=O)oc2cc(Cl)cnc21 [AZO, 6-chloro-3-(dimethoxyphosphorylsulfanylmethyl)-[1,3]oxazolo[4,5-b]pyridin-2-one]
SH-SY5Y cells [1]; Homo sapiens, SH-SY5Y, 24 h
  IC50: 26.9 ± 1.1 µM
SH-SY5Y cells [1]; Homo sapiens, SH-SY5Y
  IC50: 19.6 ± 0.5 µM
SH-SY5Y cells [2]; Homo sapiens, SH-SY5Y, 24 h, read-out: LDH IC50, differentiated SH-SY5Y cells, 24 h exposure
  IC50: 20.5 ± 1.6 µM
SH-SY5Y cells [2]; Homo sapiens, SH-SY5Y, 24 h, read-out: LDH IC50, undifferentiated SH-SY5Y cells, 24 h exposure
  IC50: 26.5 ± 0.9 µM
SH-SY5Y cells [3]; Homo sapiens, SH-SY5Y, read-out: ATP IC50, differentiated SH-SY5Y cells
  IC50: 20.7 ± 0.1 µM
SH-SY5Y cells [3]; Homo sapiens, SH-SY5Y, read-out: ATP IC50, undifferentiated SH-SY5Y cells
  IC50: 26 ± 0.6 µM
[4]; Homo sapiens, SH-SY5Y
  IC50: 16.5 ± 1.3 µM
[5]; AChE Inhibition IC50, differentiated SH-SY5Y cells
  IC50: 0.22 µM
[5]; AChE Inhibition IC50, undifferentiated SH-SY5Y cells
  IC50: 0.3 µM
rat
  rat oral LD50: 1180 mg/kg
[6]
  hazard classification: Class II

## CNC(=O)O/N=C/C(C)(C)SC [Aldicarb, [(E)-(2-methyl-2-methylsulfanylpropylidene)amino] N-methylcarbamate]
SH-SY5Y cells [1]; [7]
  IC50: 31.6 ± 2.2 µM
SH-SY5Y cells [1]; Homo sapiens, undifferentiated SH-SY5Y cells, 24 h exposure
  IC50: 39.6 ± 3.6 µM
SH-SY5Y cells [2]; Homo sapiens, SH-SY5Y, 24 h, differentiated SH-SY5Y cells, 24 h exposure, read-out: LDH IC50
  IC50: 29.9 ± 1.6 µM
SH-SY5Y cells [2]; Homo sapiens, SH-SY5Y, 24 h, undifferentiated SH-SY5Y cells, 24 h exposure, read-out: LDH IC50
  IC50: 35.4 ± 1.4 µM
SH-SY5Y cells [3]; Homo sapiens, SH-SY5Y, differentiated SH-SY5Y cells, read-out: ATP IC50
  IC50: 32.4 ± 1.2 µM
SH-SY5Y cells [3]; Homo sapiens, SH-SY5Y, undifferentiated SH-SY5Y cells, read-out: ATP IC50
  IC50: 40.2 ± 2.9 µM
[4]; [7]
  IC50: 30.2 ± 4.7 µM
rat
  rat oral LD50: 0.65 mg/kg
[6]
  hazard classification: Class Ia

## CCOP(=O)(OCC)Oc1nc(Cl)c(Cl)cc1Cl [CPO, diethyl (3,5,6-trichloropyridin-2-yl) phosphate]
SH-SY5Y cells [1]; differentiated SH-SY5Y cells
  IC50: 17.3 ± 0.9 µM
SH-SY5Y cells [1]; undifferentiated SH-SY5Y cells, 24 h exposure
  IC50: 29.4 ± 2.1 µM
SH-SY5Y cells [2]; differentiated SH-SY5Y cells, 24 h exposure, read-out: LDH IC50
  IC50: 17.2 ± 1.1 µM
SH-SY5Y cells [2]; undifferentiated SH-SY5Y cells, 24 h exposure, read-out: LDH IC50
  IC50: 27.8 ± 2.1 µM
SH-SY5Y cells [3]; differentiated SH-SY5Y cells, read-out: ATP IC50
  IC50: 18.8 ± 0.1 µM
SH-SY5Y cells [3]; undifferentiated SH-SY5Y cells, read-out: ATP IC50
  IC50: 29.6 ± 2.1 µM
[4]; differentiated SH-SY5Y cells
  IC50: 10.8 ± 0.1 µM

## CCOP(=S)(OCC)Oc1nc(Cl)c(Cl)cc1Cl [chlorpyrifos, Chlorpyrifos]
rat
  rat oral LD50: 82 mg/kg
